Results on 19 compounds are retold here after US20250340574A1, “MODULATORS OF CYSTIC FIBROSIS TRANSMEMBRANE CONDUCTANCE REGULATOR” (Vertex Pharmaceuticals Incorporated, priority 2022, published 2025).

Like-named read-outs stand apart in the source and are kept apart here.

The target in test [1] is T1, CFTR (F508del/MF-HBE cells) (Homo sapiens, UniProt P13569, DEL508-508).
T1 construct: human bronchial epithelial (HBE) cells derived from CF subjects heterozygous for F508del and a minimal function CFTR mutation (F508del/MF-HBE); endogenous in cells; host or cells: Primary human bronchial epithelial cells from CF subjects (F508del/MF genotype), differentiated at an air-liquid interface
Kind of test: Ussing chamber assay of CFTR-mediated short-circuit currents, Assay C (0.026 μM to 25 μM, 6 concentrations). The format is cell-based. The note with it: with 33 nM potentiator and 18 μM Tezacaftor, 20% human serum; for Emax: read-out: C Max activity (%). The method, boiled down: (§1)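 Short-circuit current was recorded at 37 °C under voltage clamp (0 mV) with amiloride 30 μM apically, forskolin 20 μM activation, then BPO/GlyH-101/inh-172 (20 μM each) to isolate CFTR current. Before recording, corrector exposure lasted 18–24 h with 18 μM tezacaftor, 20% human serum, and 33 nM (dose–response) or 44 nM (1 μM fixed) potentiator, maintained throughout.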

Test [2] deals with T1, CFTR (F508del/MF-HBE cells). Kind of test: Ussing chamber assay of CFTR-mediated short-circuit currents, Assay D (single concentration of 1 μM). The format is cell-based. The note with it: with 44 nM potentiator and 18 μM Tezacaftor, 20% human serum; for D activity at 1 μM (%): 18-24 hours. The essentials: as §1

T1 sequence (P13569 with tags, fused parts or gaps DEL508-508): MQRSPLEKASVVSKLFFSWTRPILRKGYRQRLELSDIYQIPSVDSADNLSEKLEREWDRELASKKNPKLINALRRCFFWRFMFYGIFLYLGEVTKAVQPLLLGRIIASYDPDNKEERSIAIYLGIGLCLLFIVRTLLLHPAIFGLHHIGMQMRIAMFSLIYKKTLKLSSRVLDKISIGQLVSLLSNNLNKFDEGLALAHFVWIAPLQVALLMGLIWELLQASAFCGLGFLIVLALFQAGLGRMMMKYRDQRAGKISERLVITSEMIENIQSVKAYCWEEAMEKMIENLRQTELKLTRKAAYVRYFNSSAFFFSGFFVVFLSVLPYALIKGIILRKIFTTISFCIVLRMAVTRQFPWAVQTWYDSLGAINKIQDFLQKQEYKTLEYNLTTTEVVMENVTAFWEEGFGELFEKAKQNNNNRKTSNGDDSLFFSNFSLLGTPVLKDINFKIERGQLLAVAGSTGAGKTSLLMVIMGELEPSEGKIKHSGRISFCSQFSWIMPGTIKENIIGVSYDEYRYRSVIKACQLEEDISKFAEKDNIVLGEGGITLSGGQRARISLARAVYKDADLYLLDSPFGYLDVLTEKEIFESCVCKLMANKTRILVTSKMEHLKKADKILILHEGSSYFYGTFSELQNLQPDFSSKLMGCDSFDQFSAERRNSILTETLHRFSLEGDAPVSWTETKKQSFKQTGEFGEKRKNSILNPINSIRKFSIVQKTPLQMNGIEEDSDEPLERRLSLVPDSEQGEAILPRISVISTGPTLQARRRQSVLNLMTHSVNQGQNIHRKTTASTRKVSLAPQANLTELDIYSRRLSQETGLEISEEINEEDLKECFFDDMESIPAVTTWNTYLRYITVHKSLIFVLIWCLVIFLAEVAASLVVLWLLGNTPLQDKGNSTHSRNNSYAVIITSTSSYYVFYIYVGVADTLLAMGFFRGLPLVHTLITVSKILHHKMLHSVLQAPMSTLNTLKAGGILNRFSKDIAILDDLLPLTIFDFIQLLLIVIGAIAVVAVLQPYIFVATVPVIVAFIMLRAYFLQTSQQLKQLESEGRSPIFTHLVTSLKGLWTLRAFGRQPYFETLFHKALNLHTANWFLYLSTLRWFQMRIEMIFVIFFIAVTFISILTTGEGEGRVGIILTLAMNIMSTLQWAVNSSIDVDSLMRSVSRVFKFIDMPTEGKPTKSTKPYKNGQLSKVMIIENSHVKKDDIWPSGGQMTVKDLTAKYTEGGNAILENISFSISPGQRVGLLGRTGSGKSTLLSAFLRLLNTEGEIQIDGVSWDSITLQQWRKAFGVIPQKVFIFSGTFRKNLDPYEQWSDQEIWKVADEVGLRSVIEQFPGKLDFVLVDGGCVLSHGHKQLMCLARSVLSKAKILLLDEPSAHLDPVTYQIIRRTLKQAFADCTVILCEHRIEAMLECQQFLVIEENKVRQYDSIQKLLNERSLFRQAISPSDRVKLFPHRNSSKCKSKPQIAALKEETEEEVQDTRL

Consider `COc1c2nc(nc1-c1c(C)cccc1C)NS(=O)(=O)c1cccc(c1)C(=O)N(Cc1cnc3oc(C(C)(C)C)cc3n1)[C@H](CC1(C)CC1)CO2` [IV-12], for which, in test [1], the EC50 (as a rule, the concentration giving half of the maximal effect) fell in the range of 1000 to 3000 nM and the Emax is over 60%. For the same compound, the “D act. at 1 μM (%)” value in test [2] is recorded as “+++ (+++ is >60%)”.
In the case of `COc1c2nc(nc1-c1c(C)cccc1C)NS(=O)(=O)c1cccc(c1)C(=O)N(Cc1cnc3cc(C(C)C)n(C)c3n1)[C@H](CC(C)(C)C)CC2` [Compound I-158], the Emax in test [1] (18-24 hours) is over 60%. Also, the EC50 in test [1] fell in the range of 1000 to 3000 nM. Further, the “D activity at 1 μM (%)” value in test [2] is “+++ (+++ is >60%)”.
In the same order, the values of `Cc1cccc(C)c1-c1cc2nc(n1)NS(=O)(=O)c1cccc(c1)C(=O)N(Cc1cnc3cc(C(C)(C)C)n(C)c3n1)[C@H](COC(C)C)CO2` [Compound I-185] are over 60%, under 1000 nM and “+++ (+++ is >60%)”.
In the same order, the values of `Cc1cccc(C)c1-c1nc2nc(c1C)OC[C@@H](CC(C)(C)C)N(Cc1ncc3cc(C4CC4)n(C)c3n1)C(=O)c1cccc(c1)S(=O)(=O)N2` [Compound I-265] are over 60%, 1000 to 3000 nM and “+++ (+++ is >60%)”.
As to `Cc1cccc(C)c1-c1cc2nc(n1)NS(=O)(=O)c1cccc(c1)C(=O)N(Cc1cnc3oc(C(C)(C)C)cc3n1)[C@H](CC1(C)CCC1)CO2` [IV-5], in test [1], the EC50 is 1000 to 3000 nM and the Emax was over 60%. In addition, the “D act. at 1 μM (%)” value in test [2] is “+++ (+++ is >60%)”.
Take `Cc1cccc(C)c1-c1cc2nc(n1)NS(=O)(=O)c1cccc(c1)C(=O)N(Cc1cnc3oc(C(C)(C)C)cc3n1)[C@H](CC(C)(C)C)CO2` [Compound I-218]: the Emax in test [1] (18-24 hours) was over 60%. The EC50 in test [1] was under 1000 nM. Moreover, in test [2], the “D activity at 1 μM (%)” value was “+++ (+++ is >60%)”.
The corresponding values for `Cc1cccc(CC(C)C)c1-c1nc2nc(c1C)OC[C@@H](CC(C)(C)C)N(Cc1cnc3nc(C4CC4)n(C)c3n1)C(=O)c1cccc(c1)S(=O)(=O)N2` (atropisomer, axis not shown) [Compound I-170] are over 60%, under 1000 nM and “+++ (+++ is >60%)”.
For the compound `Cc1cccc(CC(C)C)c1-c1nc2nc(c1C)OC[C@@H](CC1(C)CC1)N(Cc1cnc3oc(C(C)(C)C)cc3n1)C(=O)c1cccc(c1)S(=O)(=O)N2` (atropisomer, axis not shown) [IV-45], in test [1], the EC50 lay within 1000 to 3000 nM and the Emax was over 60%. The “D act. at 1 μM (%)” value in test [2] is listed as “+++ (+++ is >60%)”.
Take `Cc1cccc(C)c1-c1cc2nc(n1)NS(=O)(=O)c1cccc(c1)C(=O)N(Cc1ncc3cc(C4CC4)n(C)c3n1)[C@H](CC1(C)CC1)CO2` [Compound I-263]: the Emax in test [1] (18-24 hours) is over 60%. The EC50 in test [1] was 1000 to 3000 nM. The “D activity at 1 μM (%)” value in test [2] was “+++ (+++ is >60%)”.
Turning to `Cc1cccc(C)c1-c1nc2nc(c1C)OC[C@@H](COC(C)C)N(Cc1cnc3cc(C4(C)CC4)n(C)c3n1)C(=O)c1cccc(c1)S(=O)(=O)N2` [IV-2], in test [1], the half-maximal effective concentration (EC50) is under 1000 nM and the Emax is over 60%. The “D act. at 1 μM (%)” value in test [2] was “+++ (+++ is >60%)”.
For the compound `Cc1cccc(CC(C)C)c1-c1nc2nc(c1C)OC[C@@H](CC1(C)CC1)N(Cc1cnc3oc(C(C)C)cc3n1)C(=O)c1cccc(c1)S(=O)(=O)N2` (atropisomer, axis not shown) [IV-46], in test [1], the EC50 was under 1000 nM and the Emax is over 60%. Further, the “D act. at 1 μM (%)” value in test [2] is listed as “+++ (+++ is >60%)”.
In the case of `Cc1cccc(CC2CCCC2)c1-c1nc2nc(c1C)OC[C@@H](CC(C)(C)C)N(Cc1cnc3oc(C4CC4)cc3n1)C(=O)c1cccc(c1)S(=O)(=O)N2` (atropisomer, axis not shown) [Compound I-195], the Emax in test [1] (18-24 hours) is over 60%. The EC50 in test [1] is under 1000 nM. The “D activity at 1 μM (%)” value in test [2] is recorded as “+++ (+++ is >60%)”.
As to `Cc1cccc(CC(C)C)c1-c1nc2nc(c1C)OC[C@@H](CC(C)(C)C)N(Cc1cnc3cc(C4(C)CC4)n(C)c3n1)C(=O)c1cccc(c1)S(=O)(=O)N2` (atropisomer, axis not shown) [IV-19], in test [1], the EC50 is under 1000 nM and the Emax is over 60%. Further, the “D act. at 1 μM (%)” value in test [2] was “+++ (+++ is >60%)”.
The corresponding values for `Cc1cccc(C)c1-c1cc2nc(n1)NS(=O)(=O)c1cccc(c1)C(=O)N(Cc1cnc3oc(C4CCOCC4)cc3n1)[C@H](CC1(C)CC1)CO2` [IV-27] are 3000 to 30000 nM, over 60% and “+++ (+++ is >60%)”.
For `Cc1cccc(C)c1-c1nc2nc(c1C)OC[C@@H](CC1(C)CC1)N(Cc1cnc3cc(C(C)(C)C)n(C)c3n1)C(=O)c1cccc(c1)S(=O)(=O)N2` [Compound I-222], the Emax in test [1] (18-24 hours) was over 60%. In addition, the EC50 in test [1] was under 1000 nM. Also, in test [2], the “D activity at 1 μM (%)” value is “+++ (+++ is >60%)”.
For the compound `Cc1cccc(C)c1-c1cc2nc(n1)NS(=O)(=O)c1cccc(c1)C(=O)N(Cc1cnc3oc(C(C)(C)CO)cc3n1)[C@H](CC13CC(C1)C3)CO2` [Compound I-113, (11R)-11-(1-bicyclo[1.1.1]pentanylmethyl)-6-(2,6-dimethylphenyl)-12-[[6-(2-hydroxy-1,1-dimethyl-ethyl)furo[2,3-b]pyrazin-2-yl]methyl]-2,2-dioxo-9-oxa-2λ^6-thia-3,5,12,19-tetrazatricyclo[12.3.1.14,8]nonadeca-1(18),4(19),5,7,14,16-hexaen-13-one], the Emax in test [1] (18-24 hours) is over 60%. Besides, the EC50 in test [1] was in the range of 3000 to 30000 nM. Moreover, the “D activity at 1 μM (%)” value in test [2] is given as “+++ (+++ is >60%)”.
The corresponding values for `Cc1cccc(C(C)C)c1-c1nc2nc(c1C)OC[C@@H](CC(C)(C)C)N(Cc1cnc3oc(C4(C)CC4)cc3n1)C(=O)c1cccc(c1)S(=O)(=O)N2` (atropisomer, axis not shown) [Compound I-213] are over 60%, under 1000 nM and “+++ (+++ is >60%)”.
Take `CCC(C)(C)C[C@H]1COc2cc(-c3c(C)cccc3C)nc(n2)NS(=O)(=O)c2cccc(c2)C(=O)N1Cc1cnc2oc(C(C)(C)C)cc2n1` [IV-37]: in test [1], the EC50 is 1000 to 3000 nM and the Emax is over 60%. In addition, the “D act. at 1 μM (%)” value in test [2] is on record as “+++ (+++ is >60%)”.
Take `Cc1cccc(CC(C)C)c1-c1nc2nc(c1C)OC[C@@H](CC(C)(C)C)N(Cc1cnc3nc(C(C)C)n(C)c3n1)C(=O)c1cccc(c1)S(=O)(=O)N2` (atropisomer, axis not shown) [Compound I-171]: in test [1] (18-24 hours), the Emax was over 60%. For the same compound, the EC50 in test [1] is under 1000 nM. The “D activity at 1 μM (%)” value in test [2] is “+++ (+++ is >60%)”.
